One molecule from US20200390762A1, “METHOD OF TREATING HAND-FOOT SYNDROME AND SYMPTOMS ASSOCIATED THEREWITH” (GALDERMA S.A., priority 2014, published 2020) can be followed below.

Where a name gives a salt, the structure may show the parent alone.

This assay relates to murine UVB-induced epidermal hyperplasia model. The assay is described as follows: Murine UVB-induced epidermal hyperplasia model: epidermis thickness (H&E histology). The assay is classed as in vivo, SKH1 mice. The settings on record: UVB 120 mJ/cm^2. As to the method:
The back skin of the SKH1 mice was exposed to 120 mJ/cm^2 UVB using the Biospectra system equipped with UVB sunlamps with a maximum emission peak at 312 nm. Irradiations were performed under isoflurane gaseous anesthesia. Vehicle (PEG400/EtOH/PHY (30/20/50) p/p) or brimonidine at 0.2% or 2% was administered by topical route (100 μl) on a 10 cm^2-area on the back using a micropipette. The area is located on the upper part of the back to prevent the animals from licking themselves. […]
One hour after the third topical treatment and one hour before euthanasia, mice received an i.p. injection of 5-ethynyl-2′-deoxyuridine (EdU) at 100 mg/kg. […] For epidermal thickness, two sections per animal (7 μm) were stained in H&E. Skin histology and the epidermis thickness were analyzed using image analysis (mScope 3.9, Aurora mScope) on scanned slide pictures (NanoZoomer C9600-12, Hamamatsu Photonics K.K). […] Nuclei were also stained with DAPI (5 mg/ml) diluted in Vectashield Hard Set Mounting medium for fluorescence ref: 1-1400 Vector Laboratories). The number of keratinocyte stained with Alexa Fluor® 594 was counted from digital images (NanoZoomer C9600-12, Hamamatsu Photonics K.K) and the epidermis length of each section determined using an in-house dedicated tool. […]

Consider `Brc1c(NC2=NCCN2)ccc2nccnc12` [brimonidine tartrate, (5-Bromo-quinoxalin-6-yl)-(4,5-dihydro-1H-imidazol-2-yl)-amine (Brimonidine)], for which the “inhibition of acanthosis (epidermis thickness)” value (0.2% topical, pre-treatment) was “no effect” and the “inhibition of acanthosis (epidermis thickness)” value (2% topical, pre-treatment (1 h before UV irradiation, then twice more at 23 hours apart)) is recorded as −23%.
